Where two headings read alike, the source gives them in different places.
System: hypercholesterolemia golden hamster model
Assay: In vivo pharmacodynamic screening in hypercholesterolemia model of golden hamster (plasma TC and LDL-C)
Conditions: for inhibition in vivo at 0.4 mg/kg / inhibition in vivo at 2 mg/kg / inhibition in vivo at 10 mg/kg / inhibition in vivo at 5 mg/kg / inhibition in vivo at 1 mg/kg: Mesocricetus auratus, po, 168 h; for LDL-C after administration / TC after administration / LDL after administration: 1 week, plasma; for reduction of plasma TC and LDL-C levels (in words): significant statistical difference; for effect of lowering cholesterol (screening result in words): in vivo pharmacodynamic screening test, Ezetimibe as positive control; for efficacy compared with the positive control (in words): positive control Ezetimibe
Method: 1. Establishment of Hypercholesterolemia Model of Golden Hamster:
The animals were subjected to acclimation feeding for 1 week with free feeding and drinking under a lighting condition of 10 h/14 h. On Day 8, the animals were raised with high fat feed (consisting of 0.5% cholesterol, 20% palm oil, 79.5% basal feed) for 1 week. Then, each animal was anesthetized by ether. After weighing, 0.5 ml blood was obtained from orbital vein, anticoagulated with heparin and centrifuged at 5000 rpm for 10 min. The plasma was collected and the levels of plasma TC (total cholesterol) and LDL-C (low density lipoprotein cholesterol) were determined by automatic biochemical analyzer. Animals with plasma TC of 9-15 mmol/L were selected as model animals (refer to the following reference for the method of animal modeling: Burrier, R. E., Smith, A. A., Mcgregor, D. G, Hoos, L. M., Zilli, D. L., Davis, H. R. The effect of acyl CoA: cholesterol acyltransferase inhibition on the uptake, esterification and secretion of cholesterol by the hamster small intestine. J. Pharm. Exp. Ther., 1995, 272, 156-163).
The animals were grouped according to TC and LDL-C levels and weight with 6 animals per group. Ezetimibe was used as positive control. The animals were intragastrically administered at a volume of 5 ml/kg for 1 week. Each animal was anesthetized by ether. After weighing, 0.5 ml blood was taken from orbital vein, anticoagulated with heparin, and centrifuged at 5000 rpm for 10 min. The plasma was collected and plasma TC (total cholesterol) and LDL-C (low density lipoprotein cholesterol) levels were determined by automatic biochemical analyzer to evaluate the efficacy of the compounds.

[1] = Table 2, read-out: Reducing LDL-C %
[2] = Table 2, read-out: Reducing TC %
[3] = Table 1, 0.4 mg/kg intragastric
[4] = golden hamster hypercholesterolemic model
[5] = Table 12, read-out: Reducing LDL-C %
[6] = Table 12, read-out: Reducing TC %
[7] = Table 11, 10 mg/kg intragastric
[8] = Table 11, baseline of group dosed 10 mg/kg
[9] = Table 11, baseline of group dosed 3 mg/kg
[10] = Table 10, read-out: Reducing LDL-C %
[11] = Table 10, read-out: Reducing TC %
[12] = Table 6, read-out: Reducing LDL-C %
[13] = Table 6, read-out: Reducing TC %

O=C1[C@H](C/C=C(/CO)c2ccc(F)cc2)[C@@H](c2ccc(O)cc2)N1c1ccc(F)cc1 [I-1(E), (3R,4S)-1-(4-fluorophenyl)-3-[(E)-3-(4-fluorophenyl)-4-hydroxy-but-2-enyl]-4-(4-hydroxyphenyl)azetidin-2-one]
inhibition in vivo at 0.4 mg/kg [1]: -16.4%
inhibition in vivo at 0.4 mg/kg [2]: -26.1%
inhibition in vivo at 2 mg/kg [1]: 0%
inhibition in vivo at 2 mg/kg [2]: -20.9%
inhibition in vivo at 10 mg/kg [1]: 30.7%
inhibition in vivo at 10 mg/kg [2]: 11.7%
LDL-C after administration [3]: 2.84 ± 0.59 mmol/L
TC after administration [3]: 12.42 ± 1.4 mmol/L
LDL-C after administration (Table 1, 2 mg/kg intragastric): 2.21 ± 0.37 mmol/L
TC after administration (Table 1, 2 mg/kg intragastric): 11.19 ± 0.69 mmol/L
LDL-C after administration (Table 1, 10 mg/kg intragastric): 1.74 ± 0.62 mmol/L
TC after administration (Table 1, 10 mg/kg intragastric): 8.7 ± 0.93 mmol/L
LDL-C before administration (Table 1, baseline of group dosed 0.4 mg/kg): 2.44 ± 0.46 mmol/L
LDL-C before administration (Table 1, baseline of group dosed 2 mg/kg): 2.21 ± 0.47 mmol/L
LDL-C before administration (Table 1, baseline of group dosed 10 mg/kg): 2.51 ± 0.91 mmol/L
reduction of plasma TC and LDL-C relative to the amount reduced by Ezetimibe and I-1 (Z) [4]: less than 50%
reduction of plasma TC and LDL-C levels (in words) [4]: can also lower plasma TC and LDL-C levels
effect of lowering cholesterol (screening result in words): certain effect on cholesterol-lowering

COc1ccc([C@@H]2[C@@H](C/C=C(\CO)c3ccc(F)cc3)C(=O)N2c2ccc(F)cc2)cc1 [I-2(Z)]
inhibition in vivo at 5 mg/kg [5]: 63.4%
inhibition in vivo at 5 mg/kg [6]: 62.2%
LDL-C after administration [7]: 1.01
TC after administration [7]: 4.82
LDL-C before administration [8]: 2.76 ± 0.43
TC before administration [8]: 12.74 ± 1.32
reduction of plasma TC and LDL-C levels (in words) [4]: can significantly reduce the plasma TC and LDL-C levels
effect of lowering cholesterol (screening result in words): have the effect of lowering cholesterol
efficacy compared with the positive control (in words): more similar to the positive control

O=C1[C@H](C/C=C(\CO)c2ccc(F)cc2)[C@@H](c2ccc(Oc3ccccc3)cc2)N1c1ccc(F)cc1 [I-3(Z)]
inhibition in vivo at 10 mg/kg [5]: 66.3%
inhibition in vivo at 10 mg/kg [6]: 50.8%
LDL-C after administration [7]: 1.14
TC after administration [7]: 6.23
LDL-C before administration [8]: 3.38 ± 0.84
TC before administration [8]: 12.67 ± 1.35
reduction of plasma TC and LDL-C levels (in words) [4]: can significantly reduce the plasma TC and LDL-C levels
effect of lowering cholesterol (screening result in words): have the effect of lowering cholesterol
efficacy compared with the positive control (in words): more similar to the positive control

O=C1[C@H](C/C=C(\CO)c2ccc(F)cc2)[C@@H](c2ccc(OCc3ccccc3)cc2)N1c1ccc(F)cc1 [I-4(Z)]
inhibition in vivo at 5 mg/kg [5]: 53.5%
inhibition in vivo at 5 mg/kg [6]: 49.1%
LDL-C after administration (Table 11, 3 mg/kg intragastric): 1.51
TC after administration (Table 11, 3 mg/kg intragastric): 6.48
LDL-C before administration [9]: 3.25 ± 0.79
TC before administration [9]: 12.73 ± 1.27
reduction of plasma TC and LDL-C levels (in words) [4]: can significantly reduce the plasma TC and LDL-C levels
effect of lowering cholesterol (screening result in words): have the effect of lowering cholesterol
efficacy compared with the positive control (in words): more similar to the positive control

O=C(Oc1ccc([C@@H]2[C@@H](C/C=C(\CO)c3ccc(F)cc3)C(=O)N2c2ccc(F)cc2)cc1)c1ccccc1 [I-5(Z), (3R,4S)-4-(4-benzoyloxyphenyl)-1-(4-fluorophenyl)-3-[(Z)-3-(4-fluorophenyl)-4-hydroxy-but-2-enyl]azetidin-2-one]
inhibition in vivo at 1 mg/kg [10]: 30.7%
inhibition in vivo at 1 mg/kg [11]: 31.2%
inhibition in vivo at 10 mg/kg [10]: 68.1%
inhibition in vivo at 10 mg/kg [11]: 62.7%
LDL after administration (Table 9, 1 mg/kg intragastric): 2.18 mmol/L
TC after administration (Table 9, 1 mg/kg intragastric): 10.55 mmol/L
LDL after administration (Table 9, 10 mg/kg intragastric): 1.0 mmol/L
TC after administration (Table 9, 10 mg/kg intragastric): 5.73 mmol/L
reduction of plasma TC and LDL-C levels (in words) [4]: can significantly reduce the plasma TC and LDL-C levels
effect of lowering cholesterol (screening result in words): have the effect of lowering cholesterol

CC(=O)Oc1ccc([C@@H]2[C@@H](C/C=C(\CO)c3ccc(F)cc3)C(=O)N2c2ccc(F)cc2)cc1 [I-6(Z), (3R,4S)-4-(4-acetoxyphenyl)-1-(4-fluorophenyl)-3-[(Z)-3-(4-fluorophenyl)-4-hydroxy-but-2-enyl]azetidin-2-one]
inhibition in vivo at 1 mg/kg [10]: 50.2%
inhibition in vivo at 1 mg/kg [11]: 51.5%
inhibition in vivo at 10 mg/kg [10]: 70.4%
inhibition in vivo at 10 mg/kg [11]: 65.6%
LDL after administration (Table 9, 1 mg/kg intragastric): 1.57 mmol/L
TC after administration (Table 9, 1 mg/kg intragastric): 7.45 mmol/L
LDL after administration (Table 9, 10 mg/kg intragastric): 0.93 mmol/L
TC after administration (Table 9, 10 mg/kg intragastric): 5.28 mmol/L
reduction of plasma TC and LDL-C levels (in words) [4]: can significantly reduce the plasma TC and LDL-C levels
effect of lowering cholesterol (screening result in words): have the effect of lowering cholesterol
efficacy compared with the positive control (in words): more similar to the positive control

CC(=O)OC/C(=C\C[C@H]1C(=O)N(c2ccc(F)cc2)[C@@H]1c1ccc(OC(C)=O)cc1)c1ccc(F)cc1 [I-11(Z), (3R,4S)-3-[(Z)-4-acetoxy-3-(4-fluorophenyl)-but-2-enyl]-4-(4-acetoxyphenyl)-1-(4-fluorophenyl)azetidin-2-one]
inhibition in vivo at 1 mg/kg [10]: 47.7%
inhibition in vivo at 1 mg/kg [11]: 48%
inhibition in vivo at 10 mg/kg [10]: 59.2%
inhibition in vivo at 10 mg/kg [11]: 60.2%
LDL after administration (Table 9, 1 mg/kg intragastric): 1.65 mmol/L
TC after administration (Table 9, 1 mg/kg intragastric): 7.98 mmol/L
LDL after administration (Table 9, 10 mg/kg intragastric): 1.28 mmol/L
TC after administration (Table 9, 10 mg/kg intragastric): 6.11 mmol/L
reduction of plasma TC and LDL-C levels (in words) [4]: can significantly reduce the plasma TC and LDL-C levels
effect of lowering cholesterol (screening result in words): have the effect of lowering cholesterol

CC(=O)OC/C(=C\C[C@H]1C(=O)N(c2ccc(F)cc2)[C@@H]1c1ccc(O)cc1)c1ccc(F)cc1 [I-12(Z), (3R,4S)-3-[(Z)-4-acetoxy-3-(4-fluorophenyl)-but-2-enyl]-1-(4-fluorophenyl)-4-(4-hydroxyphenyl)azetidin-2-one]
inhibition in vivo at 1 mg/kg [12]: 62.8%
inhibition in vivo at 1 mg/kg [13]: 50.9%
inhibition in vivo at 10 mg/kg [12]: 71.5%
inhibition in vivo at 10 mg/kg [13]: 54.8%
LDL after administration (Table 5, 1 mg/kg intragastric): 1.58 mmol/L
TC after administration (Table 5, 1 mg/kg intragastric): 5.29 mmol/L
LDL after administration (Table 5, 10 mg/kg intragastric): 1.34 mmol/L
TC after administration (Table 5, 10 mg/kg intragastric): 4.86 mmol/L
reduction of plasma TC and LDL-C levels (in words) [4]: can significantly reduce the plasma TC and LDL-C levels
effect of lowering cholesterol (screening result in words): have the effect of lowering cholesterol

O=C(OC/C(=C\C[C@H]1C(=O)N(c2ccc(F)cc2)[C@@H]1c1ccc(O)cc1)c1ccc(F)cc1)c1ccccc1 [I-13(Z)]
inhibition in vivo at 1 mg/kg [12]: 58.1%
inhibition in vivo at 1 mg/kg [13]: 36.8%
inhibition in vivo at 10 mg/kg [12]: 68.8%
inhibition in vivo at 10 mg/kg [13]: 55.4%
LDL after administration (Table 5, 1 mg/kg intragastric): 1.98 mmol/L
TC after administration (Table 5, 1 mg/kg intragastric): 6.92 mmol/L
LDL after administration (Table 5, 10 mg/kg intragastric): 1.27 mmol/L
TC after administration (Table 5, 10 mg/kg intragastric): 4.81 mmol/L
reduction of plasma TC and LDL-C levels (in words) [4]: can significantly reduce the plasma TC and LDL-C levels
effect of lowering cholesterol (screening result in words): have the effect of lowering cholesterol

Reference: patent US8623855B2, “Azetidinone compounds and medical use thereof” (Zhejiang Hisun Pharmaceutical Co., Ltd., priority 2009, dated 2014)
